# Experimental data taken from PubChem BioAssay AID1963837 (Molecular Pharmacology Branch, DTP, NCI, 2024).
# Tested on: 843126-344-R-J1-PDC complex spheroid viability
# Test: Anticancer human tumor 843126-344-R-J1-PDC patient-derived melanoma cell line growth inhibition [POLQ]
# Conditions: for IC50: curve of first compound; for viability, T/C: stronger effect = lower value
# Procedure, shortened: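 Patient-derived tumour cells were co-cultured with HUVEC and mesenchymal stem cells as multicellular spheroids at 37 °C. They were treated with POLQ inhibitors (novobiocin, ART-558, RP6685) alone or combined with other agents. Top concentrations were at or near clinical Cmax (otherwise 10 microM; SN-38 at 1 microM), decreasing in half-log steps.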
# 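For viability, T/C in this document: spheroids exposed to drugs for seven days before readout.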
smiles,measurement,setting,value
COc1cc2cc(C(=O)CCC(=O)O)sc2cc1OC + Nc1ccc(C#CCN(C(=O)Cc2ncc(C(F)(F)F)cc2C(F)(F)F)c2ccc(F)cc2)nn1,IC50,second compound 0.0316 µM,> 10 µM
same,IC50,second compound 0.1 µM,> 10 µM
same,IC50,second compound 0.316 µM,> 10 µM
same,IC50,second compound 1 µM,> 10 µM
same,IC50,second compound 3.16 µM,> 10 µM
same,IC50,second compound 10 µM,> 10 µM
same,"viability, T/C","second compound 0.0316 µM, first compound 0.0316 µM",84.1%
same,"viability, T/C","second compound 0.0316 µM, first compound 0.1 µM",82.5%
same,"viability, T/C","second compound 0.0316 µM, first compound 0.316 µM",81.6%
same,"viability, T/C","second compound 0.0316 µM, first compound 1 µM",99.8%
same,"viability, T/C","second compound 0.0316 µM, first compound 3.16 µM",90.2%
same,"viability, T/C","second compound 0.0316 µM, first compound 10 µM",89.2%
same,"viability, T/C","second compound 0.1 µM, first compound 0.0316 µM",77.8%
same,"viability, T/C","second compound 0.1 µM, first compound 0.1 µM",103%
same,"viability, T/C","second compound 0.1 µM, first compound 0.316 µM",92%
same,"viability, T/C","second compound 0.1 µM, first compound 1 µM",102%
same,"viability, T/C","second compound 0.1 µM, first compound 3.16 µM",89.9%
same,"viability, T/C","second compound 0.1 µM, first compound 10 µM",107%
same,"viability, T/C","second compound 0.316 µM, first compound 0.0316 µM",96.1%
same,"viability, T/C","second compound 0.316 µM, first compound 0.1 µM",94.2%
same,"viability, T/C","second compound 0.316 µM, first compound 0.316 µM",104%
same,"viability, T/C","second compound 0.316 µM, first compound 1 µM",96.7%
same,"viability, T/C","second compound 0.316 µM, first compound 3.16 µM",108%
same,"viability, T/C","second compound 0.316 µM, first compound 10 µM",82.3%
same,"viability, T/C","second compound 1 µM, first compound 0.0316 µM",96.7%
same,"viability, T/C","second compound 1 µM, first compound 0.1 µM",77.7%
same,"viability, T/C","second compound 1 µM, first compound 0.316 µM",93.8%
same,"viability, T/C","second compound 1 µM, first compound 1 µM",83.2%
same,"viability, T/C","second compound 1 µM, first compound 3.16 µM",90.1%
same,"viability, T/C","second compound 1 µM, first compound 10 µM",76.8%
same,"viability, T/C","second compound 3.16 µM, first compound 0.0316 µM",96.9%
same,"viability, T/C","second compound 3.16 µM, first compound 0.1 µM",83.7%
same,"viability, T/C","second compound 3.16 µM, first compound 0.316 µM",89.1%
same,"viability, T/C","second compound 3.16 µM, first compound 1 µM",86%
same,"viability, T/C","second compound 3.16 µM, first compound 3.16 µM",94.7%
same,"viability, T/C","second compound 3.16 µM, first compound 10 µM",91%
same,"viability, T/C","second compound 10 µM, first compound 0.0316 µM",77.2%
same,"viability, T/C","second compound 10 µM, first compound 0.1 µM",84.3%
same,"viability, T/C","second compound 10 µM, first compound 0.316 µM",92.2%
same,"viability, T/C","second compound 10 µM, first compound 1 µM",79.1%
same,"viability, T/C","second compound 10 µM, first compound 3.16 µM",92.7%
same,"viability, T/C","second compound 10 µM, first compound 10 µM",94.1%
